Experimental data reported in PMC5650142, “GPR40 partial agonists and AgoPAMs: Differentiating effects on glucose and hormonal secretions in the rodent” (PLoS ONE, 2017).
Several values for one entry are separate records, joined by “and”; a condition that tells them apart may be missing. Equal entries are not always repeated. Where two headings read alike, the source gives them in different places.

Target: human GPR40 (Homo sapiens, UniProt O14842)
Assay: GPR40 binding assay, AgoPAM tracer [3H]25 ([3H]AP9);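 on % Bound Normalized to 100: 100% bound is tracer binding in DMSO-only wells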;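 on %Bound: 100% bound is tracer binding in DMSO-only wells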
Parameters: expressed in transfected cells; host or cells: CHO / CHO-K1 cells, membrane preparation
Experimental: Two small molecule tracers, the partial agonist [3H][…] and the AgoPAM [3H]25, are used to measure compound affinity at each site as described previously. Because of the allosteric coupling of the two sites and the nature of the assay, addition of a compound will either displace (binds to same site) or augment (binds to allosterically coupled site) radiotracer. Membranes expressing GPR40 were prepared from CHO cells stably expressing human GPR40. […] Sigma P8830) and were homogenized in 50 ml aliquots with a motor-driven glass Dounce homogenizer, 15 strokes at 1900 rpm on wet ice, repeating once. Homogenates were centrifuged at 2200 rpm for 10 min at 4°C. Supernatants were carefully removed and pooled. Homogenization and centrifugation were repeated until the debris pellet was translucent to maximize membrane recovery. Supernatants were then centrifuged at […] rpm for 20 min. at 4°C. […] Protein concentration was determined by Pierce BCA kit. […] The beads and membrane mixture is then vigorously mixed for 30 minutes at room temperature prior to addition to the assay. […] Next, 15 μl of the radioligand and 35 μl of the beads/membranes solution is added to each well. The assay plates are then sealed and incubated for 30 minutes at room temperature on an orbital shaker. The plates are allowed to settle for 16 hours and then counted on a TopCount scintillation counter (PE). […] Maximal % bound and IC50 are then determined for each test compound. 5 μg/well membrane together with 200 μg/well of PVT WGA SPA beads (GE #RPNG-0001) were suspended in a white 96 well plate with a final concentration of 50 μl/well in assay buffer (50 mM Tris, 10 mM MgCl2, and 2 mM EDTA). […] The plate is briefly mixed and incubated for 3-18 h at room temperature, before it is read on a MicroBeta plate counter (Perkin Elmer, MS, USA).

[1] = radioligand L-005306257, dose 0.318285 nM
[2] = radioligand L-005306257, dose 1.00578 nM
[3] = radioligand L-005306257, dose 3.17827 nM
[4] = radioligand L-005306257, dose 10.0433 nM
[5] = radioligand L-005306257, dose 31.7369 nM
[6] = radioligand L-005306257, dose 100.289 nM
[7] = radioligand L-005306257, dose 316.912 nM
[8] = radioligand L-005306257, dose 1001.44 nM
[9] = radioligand L-005306257, dose 3164.56 nM
[10] = radioligand L-005306257, dose 10000 nM

Sequence of human GPR40 (O14842 whole entry): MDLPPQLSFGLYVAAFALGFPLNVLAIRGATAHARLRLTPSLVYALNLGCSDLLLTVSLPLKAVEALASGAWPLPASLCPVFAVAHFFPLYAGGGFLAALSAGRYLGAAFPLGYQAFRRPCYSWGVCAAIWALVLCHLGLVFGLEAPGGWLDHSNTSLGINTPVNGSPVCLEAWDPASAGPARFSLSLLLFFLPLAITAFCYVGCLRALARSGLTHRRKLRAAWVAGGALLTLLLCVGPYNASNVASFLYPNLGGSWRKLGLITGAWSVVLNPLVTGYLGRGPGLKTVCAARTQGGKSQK

COc1ccc(F)c(-c2ccc(COc3cccc([C@@H](CC(=O)O)C4CC4)c3)cc2C2=CCCC2(C)C)c1 [AM-1638, reference compound]
HUMAN GPR40 Binding Data %Act (AM1638 sheet, individual replicates (n), tracer not given): 103% and 99% | IC50 (AM1638 sheet, individual replicates (n), tracer not given, read-out: HUMAN GPR40 Binding Data IC50): 13.8 nM and 25.5 nM | Binding Results, % in parentheses, [^3H]AP9 (WT human GPR40, maximal % (not defined)): (101%) | IC50 (WT human GPR40, n = 2–13, read-out: Binding Results [IC50, nM], [^3H]AP9): 20 ± 8.3 nM | binding of [^3H]25 (human GPR40 membranes, competition binding): displace | % Bound Normalized to 100 [1]: 103.56% | %Bound [1]: 97.67% | inhibition at 0.000318285 µM [1]: 2.33% | % Bound Normalized to 100 [2]: 89.69% | %Bound [2]: 83.79% | inhibition at 0.00100578 µM [2]: 16.2% | % Bound Normalized to 100 [3]: 80.49% | %Bound [3]: 74.60% | inhibition at 0.00317827 µM [3]: 25.4% | % Bound Normalized to 100 [4]: 58.81% | %Bound [4]: 52.92% | inhibition at 0.0100433 µM [4]: 47.1% | % Bound Normalized to 100 [5]: 50.48% | %Bound [5]: 44.59% | inhibition at 0.0317369 µM [5]: 55.4% | % Bound Normalized to 100 [6]: 21.00% | %Bound [6]: 15.10% | inhibition at 0.100289 µM [6]: 84.9% | % Bound Normalized to 100 [7]: 13.54% | %Bound [7]: 7.64% | inhibition at 0.316912 µM [7]: 92.4% | % Bound Normalized to 100 [8]: 7.12% | %Bound [8]: 1.23% | inhibition at 1.00144 µM [8]: 98.8% | % Bound Normalized to 100 [9]: 6.42% | %Bound [9]: 0.53% | inhibition at 3.16456 µM [9]: 99.5% | % Bound Normalized to 100 [10]: 6.25% | %Bound [10]: 0.36% | inhibition at 10 µM [10]: 99.6%
